These results are taken from ChEMBL document CHEMBL1126102, “2-(N'-aralkylidenehydrazino)adenosines: potent and selective coronary vasodilators” (J Med Chem, 1992).

What is called EC50 is the concentration that produces a half-maximal response. The low end stands for greater potency, the high end for weaker potency.

The target of test [1] is T1, Adenosine receptor A1 (Cavia porcellus, UniProt P47745).
T1 sequence (P47745 whole entry): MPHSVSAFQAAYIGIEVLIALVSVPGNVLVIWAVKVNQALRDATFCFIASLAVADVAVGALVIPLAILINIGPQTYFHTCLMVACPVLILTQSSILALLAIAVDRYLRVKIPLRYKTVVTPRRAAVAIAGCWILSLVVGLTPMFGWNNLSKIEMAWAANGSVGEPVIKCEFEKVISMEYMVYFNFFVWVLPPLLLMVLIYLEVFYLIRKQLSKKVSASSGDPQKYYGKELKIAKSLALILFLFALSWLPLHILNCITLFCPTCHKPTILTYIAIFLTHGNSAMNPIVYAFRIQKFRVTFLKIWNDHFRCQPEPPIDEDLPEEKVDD
Kind of test: Tested for adenosine A1 receptor agonistic activity by determining concentration needed to prolong the stimulus-QRS interval by 50% of the maximum response. The test is classed as functional.

The target in test [2] is Adenosine A2 receptor. Kind of test: Tested for adenosine A2 receptor agonistic activity by determining coronary vasodilation. The test is classed as functional, Cavia porcellus.

In the case of `Nc1nc(N/N=C/c2cccc(F)c2)nc2c1ncn2C1O[C@H](CO)[C@@H](O)[C@H]1O` (stereo not given in full), the EC50 in test [1] was 9.12 µM. The “-Log EC50” value in test [2] was determined as 8.47.

`Cc1cccc(/C=N/Nc2nc(N)c3ncn(C4O[C@H](CO)[C@@H](O)[C@H]4O)c3n2)c1` (stereo not given in full) showed an EC50 in test [1] of 17 µM. Further, the “-Log EC50” value in test [2] is given as 8.36. For `C/C(=N\Nc1nc(N)c2ncn(C3O[C@H](CO)[C@@H](O)[C@H]3O)c2n1)c1cccs1` (stereo not given in full) the same measures were 8.91 µM and 7.55. Taken in the same sequence, the figures for `Nc1nc(N/N=C/Cc2ccccc2)nc2c1ncn2C1O[C@H](CO)[C@@H](O)[C@H]1O` (stereo not given in full) were 83.2 µM and 8.04.

For `Nc1nc(N/N=C/c2ccc(CCC(=O)O)cc2)nc2c1ncn2C1O[C@H](CO)[C@@H](O)[C@H]1O` (stereo not given in full), the EC50 in test [1] is 30.9 µM. Moreover, in test [2], the “-Log EC50” value was 8.18. Regarding `Nc1nc(N/N=C/c2cccc(Cl)c2)nc2c1ncn2C1O[C@H](CO)[C@@H](O)[C@H]1O` (stereo not given in full), the concentration giving a half-maximal response (EC50) in test [1] was 49 µM. Besides, in test [2], the “-Log EC50” value worked out at 8.34. Taken in the same sequence, the figures for `Nc1nc(N/N=C/c2cc(Br)cs2)nc2c1ncn2C1O[C@H](CO)[C@@H](O)[C@H]1O` (stereo not given in full) were 57.5 µM and 8.28. Taken in the same sequence, the figures for `Nc1nc(N/N=C/c2ccncc2)nc2c1ncn2C1O[C@H](CO)[C@@H](O)[C@H]1O` (stereo not given in full) were 26.3 µM and 7.96. For `CC(C)(C)OC(=O)CCc1ccc(CCNc2nc(N)c3ncn(C4O[C@H](CO)[C@@H](O)[C@H]4O)c3n2)cc1` (stereo not given in full) the same measures were 19.1 µM and 8.28. Regarding `Nc1nc(N/N=C/c2ccccc2)nc2c1ncn2C1O[C@H](CO)[C@@H](O)[C@H]1O` (stereo not given in full), the EC50 in test [1] was 83.2 µM. The “-Log EC50” value in test [2] came to 8.64. Taken in the same sequence, the figures for `CC(C)(C)OC(=O)CCc1ccc(/C=N/Nc2nc(N)c3ncn(C4O[C@H](CO)[C@@H](O)[C@H]4O)c3n2)cc1` (stereo not given in full) were 12 µM and 8.52. `Nc1nc(N/N=C/CCc2ccccc2)nc2c1ncn2C1O[C@H](CO)[C@@H](O)[C@H]1O` (stereo not given in full) gave a half-maximal effective concentration (EC50) in test [1] of 66.1 µM. Regarding `COc1ccccc1/C=N/Nc1nc(N)c2ncn(C3O[C@H](CO)[C@@H](O)[C@H]3O)c2n1` (stereo not given in full), in test [1], the EC50 was 12.3 µM. In addition, in test [2], the “-Log EC50” value came to 6.86. On to `C/C(=N\Nc1nc(N)c2ncn(C3O[C@H](CO)[C@@H](O)[C@H]3O)c2n1)c1ccc(F)cc1` (stereo not given in full), for which, in test [1], the EC50 was 4.17 µM. Further, the “-Log EC50” value in test [2] is 8.49. Take `Nc1nc(N/N=C/c2cccc3ccccc23)nc2c1ncn2C1O[C@H](CO)[C@@H](O)[C@H]1O` (stereo not given in full): the midpoint of the response in test [1], the EC50, lay at 0.832 µM. Besides, the “-Log EC50” value in test [2] was 8.02. For `Nc1nc(N/N=C/c2cccs2)nc2c1ncn2C1O[C@H](CO)[C@@H](O)[C@H]1O` (stereo not given in full) the same measures were 41.7 µM and 7.86. `Nc1nc(N/N=C/c2cccnc2)nc2c1ncn2C1O[C@H](CO)[C@@H](O)[C@H]1O` (stereo not given in full): the EC50 in test [1] was 32.4 µM. In addition, the “-Log EC50” value in test [2] was found to be 7.83. For `Nc1nc(N/N=C/c2ccccc2F)nc2c1ncn2C1O[C@H](CO)[C@@H](O)[C@H]1O` (stereo not given in full) the same measures were 41.7 µM and 8.43.

In turn, `COc1cccc(/C=N/Nc2nc(N)c3ncn(C4O[C@H](CO)[C@@H](O)[C@H]4O)c3n2)c1` (stereo not given in full) showed an EC50 in test [1] of 19.5 µM. Besides, the “-Log EC50” value in test [2] was determined as 7.91. Taken in the same sequence, the figures for `Cc1ccccc1/C=N/Nc1nc(N)c2ncn(C3O[C@H](CO)[C@@H](O)[C@H]3O)c2n1` (stereo not given in full) were 43.7 µM and 7.92.

`Nc1nc(N/N=C/c2ccccc2Cl)nc2c1ncn2C1O[C@H](CO)[C@@H](O)[C@H]1O` (stereo not given in full): in test [1], the EC50 was 49 µM. Besides, the “-Log EC50” value in test [2] turned out to be 8.12. Consider `NNc1nc(N)c2ncn(C3O[C@H](CO)[C@@H](O)[C@H]3O)c2n1` (stereo not given in full), for which the “-Log EC50” value in test [2] worked out at 7.1.

`Nc1nc(N/N=C/c2ccsc2)nc2c1ncn2C1O[C@H](CO)[C@@H](O)[C@H]1O` (stereo not given in full) showed an EC50 in test [1] of 60.3 µM. Moreover, the “-Log EC50” value in test [2] was 7.81. In test [1], `Cc1ccc(/C=N/Nc2nc(N)c3ncn(C4O[C@H](CO)[C@@H](O)[C@H]4O)c3n2)cc1` (stereo not given in full) showed an EC50 of 39.8 µM. Regarding `C/C(=N\Nc1nc(N)c2ncn(C3O[C@H](CO)[C@@H](O)[C@H]3O)c2n1)c1ccccc1` (stereo not given in full), the EC50 in test [1] is 3.02 µM. Moreover, in test [2], the “-Log EC50” value is reported as 7.9.

`Nc1nc(N/N=C/c2ccccn2)nc2c1ncn2C1O[C@H](CO)[C@@H](O)[C@H]1O` (stereo not given in full): the EC50 in test [1] is 41.7 µM. For the same compound, the “-Log EC50” value in test [2] was 8.24.

In test [1], `Nc1nc(N/N=C/c2ccc3ccccc3c2)nc2c1ncn2C1O[C@H](CO)[C@@H](O)[C@H]1O` (stereo not given in full) showed an EC50 of 2.63 µM. In test [2], the “-Log EC50” value turned out to be 8.38. In test [1], `Nc1nc(N/N=C/c2ccc(F)cc2)nc2c1ncn2C1O[C@H](CO)[C@@H](O)[C@H]1O` (stereo not given in full) gave a concentration giving a half-maximal response (EC50) of 12.6 µM. Moreover, the “-Log EC50” value in test [2] turned out to be 8.61. Taken in the same sequence, the figures for `Nc1nc(NCCc2ccc(CCC(=O)O)cc2)nc2c1ncn2C1O[C@H](CO)[C@@H](O)[C@H]1O` (stereo not given in full) were 112 µM and 7.95.
